Data from patent US11013780B2, “Methods of treating female infertility” (Myovant Sciences GmbH, priority 2016, dated 2021).
Read-outs that look alike come from different tables or passages of the source. Where a SMILES comes first, the peptide text is derived from it. [ ]: non-standard residue; d: D form. Arg(Me) = CNC(=N)NCCC[C@H](N)C(=O)O; Hyp = O=C(O)[C@@H]1C[C@@H](O)CN1; azaGly = NNC(=O)O

How the values were obtained:
[1] = Pharmacokinetics in dogs after SC and IV administration; conditions: dog, in vivo, dogs; for AUC(0-t): read-out: AUC(0-24); for Cmax: read-out: Cmax; for bioavailability: read-out: BA (bioavailability)
Excerpt: The PK of API-MA was studied in dogs after SC and IV administration.

[2] = Pharmacokinetics in rats after SC and IV administration; conditions: rat, in vivo, rats; for AUC(0-t): read-out: AUC(0-24); for level at 5 min: read-out: C5min; for Cmax: read-out: Cmax
Method: The PK of API-MA was studied in rats after SC and IV administration.
The PK linearity of API-MA was also investigated in rats after IV administration. The plasma C5min and AUC(0-24) values increased dose-proportionally. […] The elimination T1/2 values were 0.4 hours at 0.01 and 0.1 mg/kg and 0.5 hours at 1 mg/kg. These findings indicate that the PK of API-FB was linear in rats after single IV administration over the dose range of 0.01 to 1 mg/kg. The greater than dose-proportional increase in the first-pass kinetics with SC administration would indicate nonlinear PK in rats after SC administration.

[3] = test system: 127 enzyme and radio ligand binding assays; assay: Series of 127 enzyme and radio ligand binding assays; conditions: 10 μmol/L
[4] = PK across species (rats, dogs, monkeys), SC bioavailability; assay type: in vivo; conditions: rat, dog, monkey, plasma, read-out: Bioavailability after SC administration
Excerpt: The PK of API-MA was studied in rats, dogs, and monkeys.

[5] = target: human KISS1R (Homo sapiens, UniProt Q969F8); assay: Intracellular Ca2+ mobilization (fluorometric imaging plate reader), human KISS1R; assay type: cell-based; parameters: expressed in transfected cells; host or cells: Chinese hamster ovary dihydrofolate reductase negative cells
human KISS1R, sequence (Q969F8 whole entry): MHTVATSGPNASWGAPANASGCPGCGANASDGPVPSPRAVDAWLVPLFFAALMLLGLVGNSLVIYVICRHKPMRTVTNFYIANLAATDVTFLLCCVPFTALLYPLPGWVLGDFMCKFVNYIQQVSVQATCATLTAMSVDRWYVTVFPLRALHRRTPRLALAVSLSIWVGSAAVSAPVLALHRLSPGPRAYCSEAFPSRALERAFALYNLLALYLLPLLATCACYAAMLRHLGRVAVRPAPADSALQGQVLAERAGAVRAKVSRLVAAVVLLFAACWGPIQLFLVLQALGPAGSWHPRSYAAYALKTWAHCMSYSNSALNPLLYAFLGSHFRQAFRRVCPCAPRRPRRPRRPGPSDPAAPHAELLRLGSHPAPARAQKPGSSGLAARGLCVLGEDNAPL
Method: The effects of API-MA on intracellular Ca^2+ mobilization in KISS1R-expressing recombinant cells were evaluated by performing the fluorometric imaging plate reader assay.

[6] = Pharmacokinetics in monkeys after SC and IV administration; conditions: monkey, in vivo, monkeys; for AUC(0-t): read-out: AUC(0-24); for bioavailability: read-out: BA (bioavailability); for Cmax: read-out: Cmax
Excerpt: The PK of API-MA was studied in monkeys after SC and IV administration.

[7] = target: CYP2C9 (Homo sapiens, UniProt P11712); assay: Inhibition of recombinant CYP2C9; assay type: in vitro ADME
CYP2C9, sequence (P11712 whole entry, the tested form may be a part): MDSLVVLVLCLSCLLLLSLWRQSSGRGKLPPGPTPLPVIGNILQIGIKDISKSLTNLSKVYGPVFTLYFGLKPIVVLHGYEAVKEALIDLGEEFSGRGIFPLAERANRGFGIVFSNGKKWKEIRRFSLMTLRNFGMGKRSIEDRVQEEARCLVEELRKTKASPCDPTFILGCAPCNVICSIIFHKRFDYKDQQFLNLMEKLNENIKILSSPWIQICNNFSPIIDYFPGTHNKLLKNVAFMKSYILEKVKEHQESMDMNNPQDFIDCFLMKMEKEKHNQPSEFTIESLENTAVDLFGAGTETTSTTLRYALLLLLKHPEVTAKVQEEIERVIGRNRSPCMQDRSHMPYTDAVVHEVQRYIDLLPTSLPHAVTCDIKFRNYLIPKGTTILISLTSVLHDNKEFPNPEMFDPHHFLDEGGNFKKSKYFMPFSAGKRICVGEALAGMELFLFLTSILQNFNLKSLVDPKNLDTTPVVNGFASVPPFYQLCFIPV

[8] = Multiple-dose PK, 2-hour SC infusion once daily for 14 days, Japanese prostate cancer patients; assay type: in vivo, human; conditions: for half-life / Cmax / Tmax / AUC / Vd/F / AUC(0-inf) / MRT: male, human, in vivo; for AUC: read-out: AUC (0-tau); for Vd/F: read-out: Vz/F
Method: It was an open-label, ascending dose study of API-MA administered via 2-hour SC infusion once daily for 14 days that was expected to suppress testosterone in Japanese hormone-naïve prostate cancer patients. Six patients received API-MA at doses of 0.5 mg (3 patients) and 1.0 mg (3 patients) a day for 14 days.
To measure plasma concentrations of API-MA, blood specimens were collected at the following times: Day 1 (predose and 2, 4, 6, 10 hours postdose); days 2, 4, 6, 8, 10, and 12 (predose); day 14 (predose and 2, 4, 6, 10, 24, 48 hours postdose); day 21; and day 28. To measure urinary excretion of API-MA, urine specimens were collected at the following times: Day 1 (predose and 0 to 4, 4 to 8, 8 to 12, 12 to 24 hours postdose) and day 14 (0 to 4, 4 to 8, 8 to 12, 12 to 24 hours postdose).

[9] = IV 1 mg/kg, read-out: T½ γ (elimination) (converted)
[10] = SC 0.1 to 10 mg/kg, read-out: Tmax, range over the tested SC doses
[11] = bolus IV 1 mg/kg, read-out: Cmax (C5 min)
[12] = Japanese prostate cancer patients, 2-hour SC infusion 0.5 mg/day, Day 1, mean
[13] = Japanese prostate cancer patients, 2-hour SC infusion 0.5 mg/day, Day 14, mean
[14] = Japanese prostate cancer patients, 2-hour SC infusion 1.0 mg/day, Day 1, mean
[15] = Japanese prostate cancer patients, 2-hour SC infusion 1.0 mg/day, Day 14, mean
[16] = sc, 0.5 mg/day, Japanese prostate cancer patients, 2-hour SC infusion 0.5 mg/day, Day 1, mean
[17] = sc, 0.5 mg/day, Japanese prostate cancer patients, 2-hour SC infusion 0.5 mg/day, Day 14, mean
[18] = sc, 1 mg/day, Japanese prostate cancer patients, 2-hour SC infusion 1.0 mg/day, Day 1, mean
[19] = sc, 1 mg/day, Japanese prostate cancer patients, 2-hour SC infusion 1.0 mg/day, Day 14, mean

`CC(=O)O.CNC(=N)NCCC[C@H](NC(=O)[C@H](CC(C)C)NC(=O)NNC(=O)[C@H](Cc1ccccc1)NC(=O)[C@@H](NC(=O)[C@H](CC(N)=O)NC(=O)[C@@H]1C[C@@H](O)CN1C(=O)[C@@H](Cc1ccc(O)cc1)NC(C)=O)[C@@H](C)O)C(=O)N[C@@H](Cc1c[nH]c2ccccc12)C(N)=O` [API-MA, 2-(N-Acetyl-D-tyrosyl-trans-4-hydroxy-L-prolyl-Lasparaginyl-L-threonyl-L-phenylalanyl)-hydrazinocarbonyl-L-leucyl-Nω-methyl-L-arginyl-L-tryptophanamide monoacetate] (Ac-[dY][Hyp]NTF[azaGly]L[Arg(Me)]W-NH2) showed an AUC(0-t) ([1]; IV 1 mg/kg) of 3090 ng·h/mL, a half-life [1, 9] of 3 h and a Cmax ([1]; SC 0.1 mg/kg, mean ± SD (n = 4)) of 86.6 ng/mL. The AUC(0-t) ([1]; SC 0.1 mg/kg) was 252 ng·h/mL, the bioavailability ([1]; SC 0.1 mg/kg) was 81.5% and the AUC(0-t) ([1]; SC 1 mg/kg) was 2600 ng·h/mL. The bioavailability ([1]; SC 1 mg/kg) was 84%, the Cmax ([1]; SC 1 mg/kg) was 883 ng/mL and the AUC(0-t) ([1]; SC 10 mg/kg) was 28600 ng·h/mL. The bioavailability ([1]; SC 10 mg/kg) was 92.7%, the Cmax ([1]; SC 10 mg/kg) was 8840 ng/mL and the Tmax [1, 10] was 0.8 to 1 h. The Cmax at 5 min [1, 11] was 4250 ng/mL, the AUC(0-t) ([2]; iv, 0.01 mg/kg, IV 0.01 mg/kg, PK linearity study) was 14 ng·h/mL and the AUC(0-t) ([2]; iv, 0.1 mg/kg, IV 0.1 mg/kg, PK linearity study) was 140 ng·h/mL. It also gave an AUC(0-t) ([2]; iv, 1 mg/kg, IV 1 mg/kg, PK linearity study) of 1390 ng·h/mL, an AUC(0-t) ([2]; iv, 1 mg/kg, IV 1 mg/kg) of 1460 ng·h/mL and an AUC(0-t) ([2]; sc, 1 mg/kg, SC 1 mg/kg, mean ± SD (n = 5)) of 804 ng·h/mL. For the same compound, the AUC(0-t) ([2]; sc, 10 mg/kg, SC 10 mg/kg, mean ± SD (n = 5)) was 309 ng·h/mL, the level at 5 min ([2]; IV 0.01 mg/kg, PK linearity study) was 24.1 ng/mL and the half-life ([2]; IV 0.01 mg/kg, PK linearity study, read-out: Elimination T1/2 (converted)) was 0.4 h. It also gave a level at 5 min ([2]; IV 0.1 mg/kg, PK linearity study) of 250 ng/mL, a half-life ([2]; IV 0.1 mg/kg, PK linearity study, read-out: Elimination T1/2 (converted)) of 0.4 h and a level at 5 min ([2]; IV 1 mg/kg, PK linearity study) of 2580 ng/mL. It also gave a Cmax at 5 min ([2]; IV 1 mg/kg, plasma concentration at 5 minutes, read-out: Cmax (C5 min)) of 2670 ng/mL, a half-life ([2]; IV 1 mg/kg, read-out: T1/2 alpha phase (converted)) of 0.5 h and a Cmax ([2]; SC 1 mg/kg, mean ± SD (n = 5)) of 381 ng/mL. The bioavailability ([2]; SC 1 mg/kg, read-out: BA (bioavailability)) was 55.3%, the Cmax ([2]; SC 10 mg/kg, mean ± SD (n = 5)) was 285 ng/mL and the Tmax ([2]; SC, read-out: Tmax, range over all tested SC doses) was 0.3 to 0.9 h. The “Inhibitory effect in enzyme and receptor binding assays” value [3] was “did not show any significant inhibitory effect”, the bioavailability [4] was over 55% and the EC50 [5] was 0.266 nM. For the same compound, the “Ratio of EC50 of API-MA to kisspeptin (45-54)” value ([5]; human KISS1R) was 0.85, the AUC(0-t) ([6]; IV 1 mg/kg) was 3160 ng·h/mL and the half-life [6, 9] was 3.2 h. For the same compound, the AUC(0-t) ([6]; SC 0.1 mg/kg) was 295 ng·h/mL, the bioavailability ([6]; SC 0.1 mg/kg) was 94.9% and the Cmax ([6]; SC 0.1 mg/kg) was 123 ng/mL. For the same compound, the AUC(0-t) ([6]; SC 1 mg/kg) was 2790 ng·h/mL, the bioavailability ([6]; SC 1 mg/kg) was 90.1% and the Cmax ([6]; SC 1 mg/kg) was 1320 ng/mL. It also gave an AUC(0-t) ([6]; SC 10 mg/kg) of 31600 ng·h/mL, a bioavailability ([6]; SC 10 mg/kg) of 102% and a Cmax ([6]; SC 10 mg/kg) of 12100 ng/mL. It also gave a Tmax [6, 10] of 0.3 to 0.4 h, a Cmax at 5 min [6, 11] of 5030 ng/mL and a half-life ([6]; multi-exponential decline after reaching Cmax, read-out: Mean terminal elimination T1/2 (converted)) of about 2.6 h. For the same compound, the IC50 [7] was over 7.78 nM, the CL/F [8, 12] was 13.4 L/h and the λz [8, 12] was 0.200 h⁻¹. The CL/F [8, 13] was 12.6 L/h, the λz [8, 13] was 0.198 h⁻¹ and the CL/F [8, 14] was 13.6 L/h. The λz [8, 14] was 0.221 h⁻¹, the CL/F [8, 15] was 13.4 L/h and the λz [8, 15] was 0.205 h⁻¹. The half-life ([8]; days 1 and 14, both doses (0.5 and 1.0 mg/day), read-out: Mean T1/2) was 3 to 4 h, the Cmax [8, 16] was 8.12 ng/mL and the Tmax [8, 16] was 2.11 h. The AUC [8, 16] was 36.5 ng·h/mL, the half-life ([8]; sc, 0.5 mg/day, Japanese prostate cancer patients, 2-hour SC infusion 0.5 mg/day, Day 1, mean, read-out: T1/2 (converted)) was 3.48 h and the Vd/F [8, 16] was 66.9 L. For the same compound, the Cmax [8, 17] was 8.13 ng/mL, the Tmax [8, 17] was 2.08 h and the AUC [8, 17] was 39.1 ng·h/mL. For the same compound, the half-life ([8]; sc, 0.5 mg/day, Japanese prostate cancer patients, 2-hour SC infusion 0.5 mg/day, Day 14, mean, read-out: T1/2 (converted)) was 3.5 h, the Vd/F [8, 17] was 63.5 L and the Cmax [8, 18] was 16 ng/mL. The Tmax [8, 18] was 2.11 h, the AUC [8, 18] was 70.2 ng·h/mL and the half-life ([8]; sc, 1 mg/day, Japanese prostate cancer patients, 2-hour SC infusion 1.0 mg/day, Day 1, mean, read-out: T1/2 (converted)) was 3.15 h. It also gave a Vd/F [8, 18] of 61.6 L, a Cmax [8, 19] of 15.5 ng/mL and a Tmax [8, 19] of 2.11 h. For the same compound, the AUC [8, 19] was 71.2 ng·h/mL, the half-life ([8]; sc, 1 mg/day, Japanese prostate cancer patients, 2-hour SC infusion 1.0 mg/day, Day 14, mean, read-out: T1/2 (converted)) was 3.38 h and the Vd/F [8, 19] was 65.7 L. For the same compound, the AUC(0-inf) ([8]; 0.5 mg/day, Day 1, mean) was 36.8 ng·h/mL, the MRT ([8]; 0.5 mg/day, Day 1, mean) was 4.78 h and the AUC(0-inf) ([8]; 1.0 mg/day, Day 1, mean) was 70.6 ng·h/mL. It also gave an MRT ([8]; 1.0 mg/day, Day 1, mean) of 4.64 h.
